From publication PMC5834492, “Antimycobacterial drug discovery using Mycobacteria-infected amoebae identifies anti-infectives and new molecular targets” (Scientific Reports, 2018)

Key:
[1] = tested on: M. marinum luxCDABE; type: cell-based, Mycobacterium marinum
[2] = tested on: M. marinum GFP; type: cell-based, Mycobacterium marinum; settings: 10 µM; antibiotic assay
[3] = tested on: M. marinum in A. castellanii; type: cell-based, Mycobacterium marinum
[4] = tested on: M. marinum in BV2 microglial cells; type: cell-based, Mycobacterium marinum
[5] = tested on: D. discoideum GFP-ABD; settings: 10 µM
[6] = tested on: Mtb H37Rv in THP-1; design: method as in Sorrentino et al, 2015; settings: ref Sorrentino et al, 2015, cited from earlier work; for Intracelullar MIC90 in THP-1: THP1 / Mtb H37Rv infection assay; for Extracellular MIC90/ Inracellular MIC90: ratio
[7] = tested on: Mtb H37Rv; design: method as in Sorrentino et al, 2015; settings: ref Sorrentino et al, 2015; cited from earlier work

Row | SMILES | M. marinum luxCDABE normalised growth, control=1.00, mean ([1]; 10 µM) | M. marinum GFP normalised growth, control=1.00, mean [2] | A. castellanii / M. marinum normalised growth, control=1.00, mean ([3]; 10 µM) | IC50 [4] | BV2 / M. marinum normalised growth, control=1.00, mean ([4]; 10 µM) | D. discoideum GFP-ABD normalised growth, control=1.00, mean [5] | Intracelullar MIC90 in THP-1 [6] | Extracellular MIC90/ Inracellular MIC90 [6] | Extracellular MIC90 [7] | M. marinum luxCDABE normalised growth, control = 1.00, mean ([1]; 10 µM) | Hits A. castellanii/M. marinum assay True/False ([3]; 10 µM) | hit in BV2/M. marinum assay True/False ([4]; 10 µM) | Antibiotic assays: M. marinum luxCDABE [1] | Intracellular infection assays: A. castellanii / M. marinum [3] | Intracellular infection assays: BV2 / M. marinum [4]
1 | Br.CC(C)(C)c1ccccc1OCCCON1C(=N)N=C(N)NC1(C)C [BRL-7940SA] | 0.00 | 0.04 | 2.62 | 3.14 µM | 0.53 | 0.67 | 1.85 µM | 1.24 | 2.3 µM |  |  |  |  |  | 
2 | Br.CC1(C)N=C(N)N=C(N)N1OCCc1ccc2ccccc2c1 [BRL-8088SA] | 0.00 | 0.05 | 2.26 | 2.81 µM | 0.52 | 0.71 | 5.55 µM | 0.41 | 2.3 µM |  |  |  |  |  | 
3 | Br.Cc1ccccc1OCCCON1C(=N)N=C(N)NC1(C)C [BRL-8903SA] | 0.00 | 0.06 | 2.27 | 4.27 µM | 0.52 | 0.88 | 16.65 µM | 0.23 | 3.8 µM |  |  |  |  |  | 
4 | Br.CCc1ccccc1OCCCON1C(=N)N=C(N)NC1(C)C [BRL-10143SA] | 0.00 | 0.04 | 2.62 | 4.19 µM | 0.55 | 0.53 | 1.85 µM | 1.73 | 3.2 µM |  |  |  |  |  | 
5 | Br.CC1(C)NC(N)=NC(=N)N1OCCCOc1ccc(Cl)cc1Cl [BRL-51091AM] | 0.00 | 1.23 | 1.95 | 1.8 µM | 0.51 | 0.97 | 5.55 µM | 0.63 | 3.5 µM |  |  |  |  |  | 
6 | Nc1cccnc1Nc1ccc(Cl)cc1 [GR135486X] | 1.00 | 0.83 | 0.97 | 10.8 µM | 0.75 | 0.35 | 5.55 µM | 0.04 | 0.2 µM |  |  |  |  |  | 
7 | Cc1occc1C(=O)Nc1nc(-c2ccccn2)nc2ccsc12 [GSK237561A] | 0.00 | 0.31 | 1.57 | 3.9 µM | 0.73 | -0.0741 | 1.85 µM | 2.16 | 4 µM |  |  |  |  |  | 
8 | N#Cc1ccc2c(c1)CCN(CCCSc1ccnc3cc(C(F)(F)F)ccc13)CC2 [GSK254610A] | 0.00 | 0.05 | 0.87 |  | 0.50 | 0.88 |  |  |  | 0,00 | FALSE | TRUE |  |  | 
9 | CN1CCN(c2cc(-c3ccncc3)nc(-c3ccccc3)n2)CC1 [GSK275984A] | 0.065 | 0.26 | 1.13 | 5.11 µM | 0.62 | 0.52 | 5.55 µM | 1.62 | 9 µM |  |  |  |  |  | 
10 | COc1cc(C(F)(F)F)nc2ccc(C)c(N)c12 [GSK345724A] | 0.31 | 0.29 | 1.16 | 8.6 µM | 0.87 | 0.95 | 1.85 µM | 2.86 | 5.3 µM |  |  |  |  |  | 
11 | Clc1ccc(Nc2nc(-c3ccccn3)cs2)nc1 [GSK445886A] | 0.075 | 0.31 | 1.31 | 1.75 µM | 0.84 |  | >50 µM |  |  |  |  |  |  |  | 
12 | COc1ccc2sc(Nc3nc(-c4ccccn4)cs3)nc2c1 [GSK690382A] | 0.00 | 0.98 | 1.07 | 11.9 µM | 0.85 | 1.25 |  |  |  |  |  |  |  |  | 
13 | O=C(COc1cccc(F)c1)Nc1nc(-c2ccccn2)cs1 [GSK920684A] |  |  |  |  |  |  | 50 µM |  |  |  |  |  | 0.00 |  | 
14 | CSc1ccc(C(=O)Nc2nc(-c3ccccn3)cs2)cc1 [GSK921295A] |  |  |  |  |  |  | 50 µM | 0.17 | 8.7 µM |  |  |  | 0.00 | 1.37 | 1.23
15 | O=C(O)C(F)(F)F.c1ccc(C[C@H]2CN(c3nccc(Oc4ccc(-n5ccnc5)cc4)n3)CCN2)cc1 [GSK1519001A] | 0.18 | 0.97 | 1.14 |  | 0.74 | 0.76 |  |  |  |  |  |  |  |  | 
16 | CSc1ccc(-c2nnc(NC(=O)c3ccc(Cl)s3)o2)cc1 [GSK1650514A] | 0.00 | 0.91 | 1.31 | 19.7 µM | 0.90 | 1.16 | >50 µM |  |  |  |  |  |  |  | 
17 | Cc1ccc2[nH]c(C3CCCNC3)c(-c3ccncc3)c2c1 (stereo not shown) [GSK1905227A] | 0.08 | 0.55 | 1.23 | 9.76 µM | 0.77 | 0.85 |  |  |  |  |  |  |  |  | 
18 | COc1cc(CN2CCC3(C=Cc4ccccc43)CC2)cc2c1OCO2 [SB-354364] | 1.00 | 0.83 | 1.02 | 16.8 µM | 0.80 | 0.86 |  |  |  |  |  |  |  |  | 
